Values quoted from earlier work in patent US9155707B2, “Core-shell microspheres” (Agency for Science, Technology and Research, priority 2011, dated 2015).

Columns and labels:
[1] = reference line in FIG. 10

For `O=c1[nH]cc(F)c(=O)[nH]1` [Fluorouracil (5-FU), Fluorouracil], the “solubility in water” value is given as “not in water”.

For `CCCCN1CCCCC1C(=O)Nc1c(C)cccc1C` (stereo not drawn) [Bupivacaine, bupivacaine], the “toxic limit of drug permissible in the blood plasma” value [1] is given as 4000 ng/mL.

In the case of `O=S1(=O)OC(c2ccc(O)c(Cl)c2)(c2ccc(O)c(Cl)c2)c2ccccc21` [chlorophenol red (CR), chlorophenol red], the “solubility in water” value is given as “not very soluble in water”.
